Where “and” joins values, the source holds several entries; their conditions need not be identical. Equal entries are not always repeated. Inconclusive results and toxic doses are left out.
Test system: CD2F1 mice, L1210 leukemia ip, survival T/C
Test: NCI In Vivo Anticancer Drug Screen. Data for tumor model L1210 Leukemia (intraperitoneal) in CD2F1 (CDF1) mice
Details: higher = longer survival
Method in brief: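 Mice carrying a transplanted tumor received test compound or vehicle alone. The value is the measurement in the treated group divided by that in the vehicle-treated control group.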

[1] = endpoint: mean survival time, dose: 100.0 mg/kg/injection, schedule: Q01DX001 (ip), vehicle: saline with Tween-80
[2] = endpoint: mean survival time, dose: 200.0 mg/kg/injection, schedule: Q01DX001 (ip), vehicle: saline with Tween-80
[3] = endpoint: mean survival time, dose: 400.0 mg/kg/injection, schedule: Q01DX001 (ip), vehicle: saline with Tween-80
[4] = endpoint: mean survival time, dose: 100.0 mg/kg/injection, schedule: Q04DX003 (ip), vehicle: saline with Tween-80
[5] = endpoint: mean survival time, dose: 200.0 mg/kg/injection, schedule: Q04DX003 (ip), vehicle: saline with Tween-80
[6] = endpoint: mean survival time, dose: 400.0 mg/kg/injection, schedule: Q04DX003 (ip), vehicle: saline with Tween-80
[7] = endpoint: mean survival time, dose: 100.0 mg/kg/injection, schedule: Q01DX009 (ip), vehicle: saline with Tween-80
[8] = endpoint: mean survival time, dose: 50.0 mg/kg/injection, schedule: Q01DX009 (ip), vehicle: saline
[9] = endpoint: mean survival time, dose: 100.0 mg/kg/injection, schedule: Q01DX009 (ip), vehicle: saline
[10] = endpoint: mean survival time, dose: 25.0 mg/kg/injection, schedule: Q01DX009 (ip), vehicle: saline with Tween-80
[11] = endpoint: mean survival time, dose: 50.0 mg/kg/injection, schedule: Q01DX009 (ip), vehicle: saline with Tween-80
[12] = endpoint: mean survival time, dose: 100.0 mg/kg/injection, schedule: Q04DX003 (ip), vehicle: saline

In the case of `Nc1nc(Cl)ncc1C1OC(CO)C(O)C1O` (configuration not stated), the T/C (endpoint: mean survival time, dose: 12.5 mg/kg/injection, schedule: Q01DX005 (ip), vehicle: water) is reported as 91 % of control, the T/C (endpoint: mean survival time, dose: 25.0 mg/kg/injection, schedule: Q01DX005 (ip), vehicle: water) is reported as 95 % of control and the T/C (endpoint: mean survival time, dose: 50.0 mg/kg/injection, schedule: Q01DX005 (ip), vehicle: water) is reported as 91 % of control. The T/C (endpoint: mean survival time, dose: 100.0 mg/kg/injection, schedule: Q01DX005 (ip), vehicle: water) was 87 % of control and the T/C (endpoint: mean survival time, dose: 200.0 mg/kg/injection, schedule: Q01DX005 (ip), vehicle: water) was 98 % of control.

`CS(=O)(=O)OCCNC(=O)N(CCCl)N=O` was tested, and the T/C (endpoint: mean survival time, dose: 0.39 mg/kg/injection, schedule: Q01DX009 (ip), vehicle: water) was 95 % of control, the T/C (endpoint: mean survival time, dose: 0.78 mg/kg/injection, schedule: Q01DX009 (ip), vehicle: water) was 108 % of control and the T/C (endpoint: mean survival time, dose: 3.13 mg/kg/injection, schedule: Q01DX009 (ip), vehicle: water) was 193 % of control. For the same compound, the T/C (endpoint: mean survival time, dose: 5.0 mg/kg/injection, schedule: Q01DX001 (ip), vehicle: distilled water + Tween-80) was 120 % of control, the T/C (endpoint: mean survival time, dose: 6.25 mg/kg/injection, schedule: Q01DX009 (ip), vehicle: water) was 356 % of control and the T/C (endpoint: mean survival time, dose: 20.0 mg/kg/injection, schedule: Q01DX001 (ip), vehicle: distilled water + Tween-80) was 216 % of control and 342 % of control. For the same compound, the T/C (endpoint: mean survival time, dose: 40.0 mg/kg/injection, schedule: Q01DX001 (ip), vehicle: distilled water + Tween-80) was 311 % of control and 500 % of control.

In the case of `Nc1ccc(Nc2ccc([N+](=O)[O-])cc2[N+](=O)[O-])cc1`, the T/C [1] is reported as 89 % of control, the T/C [2] is reported as 96 % of control and the T/C [3] is reported as 96 % of control.

With `COC(=O)c1cc(-c2ccc(Cl)cc2)nc2cc(Cl)c(OC)cc12` the T/C (endpoint: mean survival time, dose: 100.0 mg/kg/injection, schedule: Q01DX001 (ip), vehicle: saline) was 92 % of control and the T/C (endpoint: mean survival time, dose: 200.0 mg/kg/injection, schedule: Q01DX001 (ip), vehicle: saline) was 87 % of control.

In the case of `O=[N+]([O-])c1c[n+]([O-])ccc1Cl`, the T/C (endpoint: mean survival time, dose: 5.0 mg/kg/injection, schedule: Q01DX001 (ip), vehicle: saline) is reported as 101 % of control and the T/C (endpoint: mean survival time, dose: 10.0 mg/kg/injection, schedule: Q01DX001 (ip), vehicle: saline) is reported as 103 % of control.

With `CCOC(=O)CN(C=O)C(C)c1ccccc1` (configuration not stated) the T/C [4] was 98 % of control, the T/C [5] was 93 % of control and the T/C [6] was 92 % of control.

`CC(CC(O)(c1ccccc1)c1ccccc1)C(F)(F)F` (configuration not stated) was tested, and the T/C [7] was 100 % of control, the T/C [4] was 94 % of control and the T/C (endpoint: mean survival time, dose: 200.0 mg/kg/injection, schedule: Q01DX009 (ip), vehicle: saline with Tween-80) was 95 % of control. For the same compound, the T/C [5] was 96 % of control, the T/C (endpoint: mean survival time, dose: 400.0 mg/kg/injection, schedule: Q01DX009 (ip), vehicle: saline with Tween-80) was 98 % of control and the T/C [6] was 97 % of control.

In the case of `CCOC(=O)C(CC)(C(=O)OCC)c1c(Cl)c(=O)oc2ccc(Cl)cc12`, the T/C [1] is reported as 100 % of control, the T/C [2] is reported as 97 % of control and the T/C [3] is reported as 91 % of control.

In the case of `CC(C)(C[P+](C)(c1ccccc1)c1ccccc1)c1ccccc1`, the T/C (endpoint: mean survival time, dose: 50.0 mg/kg/injection, schedule: Q04DX002 (ip), vehicle: saline with Tween-80) is reported as 98 % of control and the T/C (endpoint: mean survival time, dose: 100.0 mg/kg/injection, schedule: Q04DX002 (ip), vehicle: saline with Tween-80) is reported as 102 % of control.

With `O=C(O)C(=O)c1ccccc1` the T/C [8] was 98 % of control, the T/C [9] was 104 % of control and the T/C (endpoint: mean survival time, dose: 200.0 mg/kg/injection, schedule: Q01DX009 (ip), vehicle: saline) was 107 % of control.

For `CCCCOc1ccc(NC(=O)CCl)cc1`, the T/C [10] was 96 % of control, the T/C (endpoint: mean survival time, dose: 25.0 mg/kg/injection, schedule: Q04DX003 (ip), vehicle: saline) was 95 % of control and the T/C [11] was 96 % of control. The T/C (endpoint: mean survival time, dose: 50.0 mg/kg/injection, schedule: Q04DX003 (ip), vehicle: saline) was 101 % of control and the T/C [12] was 94 % of control.

For `O=C1O/C(=C\c2ccccc2)C(O)=C1c1ccccc1`, the T/C (endpoint: mean survival time, dose: 25.0 mg/kg/injection, schedule: Q01DX001 (ip), vehicle: saline with Tween-80) was 102 % of control, the T/C (endpoint: mean survival time, dose: 50.0 mg/kg/injection, schedule: Q01DX001 (ip), vehicle: saline with Tween-80) was 98 % of control and the T/C [1] was 102 % of control.

With `NC(=O)C[P+](c1ccccc1)(c1ccccc1)c1ccccc1` the T/C (endpoint: mean survival time, dose: 25.0 mg/kg/injection, schedule: Q04DX003 (ip), vehicle: saline with Tween-80) was 109 % of control, the T/C (endpoint: mean survival time, dose: 50.0 mg/kg/injection, schedule: Q04DX003 (ip), vehicle: saline with Tween-80) was 114 % of control and the T/C [4] was 102 % of control and 105 % of control.

For `CC(=O)OCC1OC(n2cc(CBr)nn2)C(OC(C)=O)C(OC(C)=O)C1OC(C)=O` (configuration not stated), the T/C (endpoint: mean survival time, dose: 3.12 mg/kg/injection, schedule: Q01DX009 (ip), vehicle: saline with Tween-80) was 94 % of control and 96 % of control, the T/C (endpoint: mean survival time, dose: 6.25 mg/kg/injection, schedule: Q01DX009 (ip), vehicle: saline with Tween-80) was 98 % of control and 102 % of control and the T/C (endpoint: mean survival time, dose: 6.25 mg/kg/injection, schedule: Q01DX009 (ip), vehicle: suspension in saline) was 101 % of control. The T/C (endpoint: mean survival time, dose: 6.25 mg/kg/injection, schedule: Q04DX003 (ip), vehicle: suspension in saline) was 100 % of control, the T/C (endpoint: mean survival time, dose: 7.5 mg/kg/injection, schedule: Q01DX009 (ip), vehicle: saline) was 98 % of control and the T/C (endpoint: mean survival time, dose: 12.5 mg/kg/injection, schedule: Q01DX009 (ip), vehicle: saline with Tween-80) was 94 % of control and 104 % of control. The T/C (endpoint: mean survival time, dose: 12.5 mg/kg/injection, schedule: Q01DX009 (ip), vehicle: suspension in saline) was 102 % of control, the T/C (endpoint: mean survival time, dose: 12.5 mg/kg/injection, schedule: Q04DX003 (ip), vehicle: suspension in saline) was 107 % of control and the T/C (endpoint: mean survival time, dose: 15.0 mg/kg/injection, schedule: Q01DX009 (ip), vehicle: saline) was 100 % of control. The T/C [10] was 102 % of control and 108 % of control, the T/C (endpoint: mean survival time, dose: 25.0 mg/kg/injection, schedule: Q01DX009 (ip), vehicle: suspension in saline) was 101 % of control and the T/C (endpoint: mean survival time, dose: 25.0 mg/kg/injection, schedule: Q04DX003 (ip), vehicle: suspension in saline) was 100 % of control. For the same compound, the T/C (endpoint: mean survival time, dose: 30.0 mg/kg/injection, schedule: Q01DX009 (ip), vehicle: saline) was 98 % of control, the T/C [11] was 95 % of control and 102 % of control and the T/C (endpoint: mean survival time, dose: 50.0 mg/kg/injection, schedule: Q01DX009 (ip), vehicle: suspension in saline) was 96 % of control. For the same compound, the T/C (endpoint: mean survival time, dose: 50.0 mg/kg/injection, schedule: Q04DX003 (ip), vehicle: suspension in saline) was 103 % of control, the T/C (endpoint: mean survival time, dose: 60.0 mg/kg/injection, schedule: Q01DX009 (ip), vehicle: saline) was 102 % of control and the T/C [7] was 102 % of control.

For `N=C(N)c1ccc(Nc2ccc(-c3cc4ccc(C(=N)N)cc4[nH]3)cc2)cc1`, the T/C (endpoint: median survival time, dose: 3.75 mg/kg/injection, schedule: Q01DX005 (ip), vehicle: saline) was 326 % of control, the T/C (endpoint: median survival time, dose: 4.5 mg/kg/injection, schedule: Q01DX005 (ip), vehicle: saline) was 168 % of control and the T/C (endpoint: median survival time, dose: 7.5 mg/kg/injection, schedule: Q01DX005 (ip), vehicle: saline) was 182 % of control and 271 % of control. The T/C (endpoint: median survival time, dose: 12.49 mg/kg/injection, schedule: Q01DX005 (ip), vehicle: saline) was 150 % of control and the T/C (endpoint: median survival time, dose: 20.83 mg/kg/injection, schedule: Q01DX005 (ip), vehicle: saline) was 101 % of control.

In the case of `COc1cc2c(cc1OC)C1CCN3C(=O)CCC3[N+]1(C)CC2` (configuration not stated), the T/C [8] is reported as 93 % of control, the T/C [9] is reported as 98 % of control and the T/C [12] is reported as 98 % of control. The T/C (endpoint: mean survival time, dose: 200.0 mg/kg/injection, schedule: Q04DX003 (ip), vehicle: saline) was 96 % of control.

For `CCN(CC)C(=O)Cc1ccc2c3c(cccc13)CC2`, the T/C [4] was 98 % of control, the T/C [5] was 98 % of control and the T/C [6] was 92 % of control.

Source: PubChem BioAssay AID256 (DTP/NCI, 2004)
